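Cells were grown in 96-well plates and exposed to each compound for 48 hours at five concentrations; endpoints were interpolated linearly between bracketing concentrations, or set to the highest concentration if not reached. At the GI50, growth is halved.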 Activity calls are given as the source filed them. No stated cut-off is given here; in the data, active = GI50 up to about 1.1 µM and inactive = higher.

Holding throughout (test): NCI tumour cell line growth inhibition, 48 h
In test [1] the test system is HT-29.
In test [2] the test system is SNB-75.
In test [3] the test system is SF-268.
Test [4] has as its system A549.
Test [5] has as its system UO-31.
For test [6], the system named is TK-10.
The test system of test [7] is NCI-H23.
Test [8] concerns COLO 205.
In test [9] the test system is PC-3.
Test [10] concerns SK-MEL-28.
In test [11] the test system is SN12C.
Test [12] has as its system HCT-15.
The subject of test [13] is IGROV-1.
Test [14] relates to RXF 393.
The subject of test [15] is 786-0.
For test [16], the system named is CAKI-1.
For test [17], the system named is MDA-MB-435.
Test [18] relates to SF-539.
The test system of test [19] is NCI-H226.
The subject of test [20] is MCF7.

Regarding `O=[N+]([O-])c1ccc(/N=N/c2c(O)ccc3cc(S(=O)(=O)O)ccc23)cc1`, the GI50 in test [1], in test [2], in [3], in [4], in [5] and in [6] was > 100 µM (inactive) throughout. Moreover, the GI50 in test [7] was > 100 µM (inactive); in [8], > 100 µM (inactive); in test [9], > 100 µM (inactive); in test [10] it was > 100 µM (inactive); in [11], > 100 µM (inactive); in test [12], over 100 µM. Besides, the GI50 in test [13], in [14], in test [15], in test [16] and in test [17] was > 100 µM (inactive) in each case.

For the compound `O=[N+]([O-])C(=C(N1CCOCC1)N1CCOCC1)/C(Cl)=C(\Cl)Br`, the GI50 in test [1] was 26.8 µM (inactive); in [18] it was 24.3 µM (inactive); in test [2], 17.5 µM (inactive); in test [3], 23.6 µM (inactive); in [4] it was > 100 µM (inactive); in test [5] it was 18.4 µM (inactive). Moreover, the GI50 in test [7] was 17.3 µM (inactive); in [8], 14.8 µM (inactive); in test [9], 35 µM (inactive); in [10] it was 17.4 µM (inactive); in test [11] it was 17 µM (inactive); in [19], 27.6 µM (inactive). The GI50 in test [12] is 15.2 µM; in [15], 25.4 µM (inactive); in [20], > 10 µM (inactive).

As for `c1ccc(CN2CCC3(CC2)SSC2(CCN(Cc4ccccc4)CC2)S3)cc1`, the GI50 in test [1] is 17.6 µM (inactive); in test [18], > 100 µM (inactive); in [2] it was > 100 µM (inactive); in test [4] it was 27.7 µM (inactive); in test [5] it was > 100 µM (inactive); in test [6] it was 64.4 µM (inactive). The GI50 is 30.1 µM (inactive) in test [7]; 17 µM (inactive) in test [8]; > 100 µM (inactive) in [9]; 44 µM (inactive) in [10]; 87.1 µM (inactive) in [11]; 38.8 µM in [12]. Moreover, the GI50 was > 100 µM (inactive) in test [13], > 100 µM (inactive) in [15], 26.9 µM (inactive) in test [16] and 31.3 µM (inactive) in [17].

Regarding `COC(=O)[C@@H]1CCc2nc3ccccc3c(=O)n21`, the GI50 in test [1], in test [2], in test [3], in test [4], in test [5] and in [6] was > 100 µM (inactive) in each case. In addition, the GI50 in [7] was > 100 µM (inactive); in test [8], > 100 µM (inactive); in test [10], > 100 µM (inactive); in test [11] it was > 100 µM (inactive); in test [19] it was 93.1 µM (inactive); in [12], over 100 µM. In addition, the GI50 in [13], in test [15], in test [16] and in test [17] was > 100 µM (inactive) in each case.

Take `COc1ccc(-c2cn3c(nc4ccccc43)c(/C=C/c3cccs3)n2)cc1`: the GI50 in [1] is 29.8 µM (inactive); in test [18], 89.7 µM (inactive); in [2], 52.6 µM (inactive); in test [3], 59.2 µM (inactive); in test [4] it was 55.6 µM (inactive); in test [5], > 100 µM (inactive). Further, the GI50 in test [6] was > 100 µM (inactive); in test [7], 33.8 µM (inactive); in test [8] it was 29.8 µM (inactive); in test [10], 80 µM (inactive); in [11], > 100 µM (inactive); in test [19] it was > 100 µM (inactive). In addition, the GI50 is 26.7 µM in test [12]; > 100 µM (inactive) in [14]; 71.3 µM (inactive) in test [15]; 15 µM (inactive) in test [20]; 4.28 µM (inactive) in [17].

`O=C(NCO)NCOCn1c(=O)n(CO)c(=O)n(CO)c1=O`: the GI50 is 32.6 µM (inactive) in test [1]; > 100 µM (inactive) in [18]; 35.8 µM (inactive) in test [2]; 31.3 µM (inactive) in test [3]; 66.7 µM (inactive) in [4]; > 100 µM (inactive) in test [5]. The GI50 in [6] is > 100 µM (inactive); in [7], 19.8 µM (inactive); in test [8], 27.4 µM (inactive); in test [10] it was 22.1 µM (inactive); in test [11] it was > 60.7 µM (inactive); in test [19] it was > 100 µM (inactive). Besides, the GI50 is 23.8 µM in test [12]; > 100 µM (inactive) in [13]; 15.2 µM (inactive) in test [14]; 34.6 µM (inactive) in test [15]; 40.6 µM (inactive) in test [16].

`NS(=O)(=O)c1nnc(NS(=O)(=O)c2cccc3cccnc23)s1`: the GI50 in [18], in test [3], in [4], in [5], in [6] and in test [7] was > 100 µM (inactive) throughout. For the same compound, the GI50 in [8] is > 100 µM (inactive); in test [10], > 100 µM (inactive); in test [11] it was > 100 µM (inactive); in [19], > 100 µM (inactive); in test [12] it was over 100 µM; in [14] it was > 100 µM (inactive). Moreover, the GI50 in test [15], in test [16], in test [20] and in test [17] was > 100 µM (inactive) in each case.

As to `CC(=O)O[C@@H]1CC(C)C2CC2C2=C(C(O)OC2O)[C@@H]1C(C)CCC=C(C)C` (some centres undefined), the GI50 in test [1] was 19 µM (inactive); in [18], 18.9 µM (inactive); in [2], 26.9 µM (inactive); in test [3], 25.8 µM (inactive); in test [4], 22.7 µM (inactive); in [5], 22.2 µM (inactive). Besides, the GI50 was 33.3 µM (inactive) in [6]; 22.2 µM (inactive) in [7]; 18.2 µM (inactive) in test [8]; 36.7 µM (inactive) in test [10]; 18.4 µM (inactive) in test [11]; 20.1 µM (inactive) in test [19]. The GI50 was 22 µM in [12]; 25.1 µM (inactive) in [13]; 17.3 µM (inactive) in [14]; 21.4 µM (inactive) in test [15]; 26.4 µM (inactive) in test [16].

With `CN(C)CC1CC/C(=C\c2ccc(Cl)cc2)C1=O` (centres undefined), the GI50 was 5.71 µM (inactive) in [1]; 13.7 µM (inactive) in test [18]; 14.8 µM (inactive) in [2]; 7.03 µM (inactive) in test [3]; 20.4 µM (inactive) in test [4]; 16.6 µM (inactive) in test [5]. The GI50 was 9.86 µM (inactive) in test [6]; 8.13 µM (inactive) in [7]; 4.19 µM (inactive) in test [8]; 3.3 µM (inactive) in [10]; 7.67 µM (inactive) in test [11]; 19.9 µM (inactive) in [19]. Besides, the GI50 in test [12] was 3.18 µM; in test [13], 14.6 µM (inactive); in test [14], 3.16 µM (inactive); in test [15] it was 2.2 µM (inactive); in [16], 3.33 µM (inactive); in test [20], 1.87 µM (inactive).

Values taken from ChEMBL document CHEMBL1201862, “PubChem BioAssay data set” (2004).
